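48-hour exposure; five concentrations; linearly interpolated endpoints. Here, GI50 denotes the concentration required for 50% inhibition of growth.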 The source made the active and inactive calls. No stated cut-off is given here; in the data, active = GI50 up to about 1.1 µM and inactive = higher.
How the values were obtained:
Assay in all cases: inhibition of tumour cell growth, NCI panel, 48 h
MOLT-4 = test system: MOLT-4
EKVX = test system: EKVX
SF-268 = test system: SF-268
SNB-19 = test system: SNB-19
SR = test system: SR
SNB-75 = test system: SNB-75
COLO 205 = test system: COLO 205
TK-10 = test system: TK-10
CCRF-CEM = test system: CCRF-CEM
HCT-116 = test system: HCT-116
MDA-N = test system: MDA-N
SF-295 = test system: SF-295
SK-MEL-2 = test system: SK-MEL-2
NCI-H23 = test system: NCI-H23
NCI-H522 = test system: NCI-H522
U-251 = test system: U-251
HOP-92 = test system: HOP-92
SK-OV-3 = test system: SK-OV-3
OVCAR-5 = test system: OVCAR-5
MDA-MB-435 = test system: MDA-MB-435
SK-MEL-5 = test system: SK-MEL-5
SK-MEL-28 = test system: SK-MEL-28
SN12C = test system: SN12C
MDA-MB-231 = test system: MDA-MB-231
HOP-62 = test system: HOP-62
HT-29 = test system: HT-29
Malme-3M = test system: Malme-3M
UACC-62 = test system: UACC-62
CAKI-1 = test system: CAKI-1
BT-549 = test system: BT-549
KM12 = test system: KM12
SW-620 = test system: SW-620
OVCAR-4 = test system: OVCAR-4
RPMI-8226 = test system: RPMI-8226
HCC 2998 = test system: HCC 2998
M14 = test system: M14
IGROV-1 = test system: IGROV-1
UACC-257 = test system: UACC-257
NCI-H460 = test system: NCI-H460
UO-31 = test system: UO-31
HCT-15 = test system: HCT-15
DU-145 = test system: DU-145
PC-3 = test system: PC-3
OVCAR-3 = test system: OVCAR-3
A549 = test system: A549
A498 = test system: A498
T47D = test system: T47D
786-0 = test system: 786-0
NCI/ADR-RES = test system: NCI/ADR-RES
K562 = test system: K562
HL-60 = test system: HL-60
RXF 393 = test system: RXF 393
NCI-H226 = test system: NCI-H226
ACHN = test system: ACHN
OVCAR-8 = test system: OVCAR-8
MCF7 = test system: MCF7
LOX IMVI = test system: LOX IMVI
SF-539 = test system: SF-539

Measured: GI50

CO[C@](C(=O)OC[C@H]1[C@@H](COC(C)=O)[C@@H]2O[C@H]1c1cc3c(cc12)OCO3)(c1ccccc1)C(F)(F)F
inactive: MOLT-4 19.4 µM | EKVX 27 µM | SF-268 30.7 µM | SNB-19 50.4 µM | SR 21.2 µM | SNB-75 20.4 µM | COLO 205 28.6 µM | TK-10 38.3 µM | CCRF-CEM 7.19 µM | HCT-116 13.6 µM | MDA-N 38.3 µM | SF-295 18 µM | SK-MEL-2 28.6 µM | NCI-H23 19.1 µM | NCI-H522 4.26 µM | U-251 36.5 µM | HOP-92 34 µM | SK-OV-3 89.7 µM | OVCAR-5 30.9 µM | MDA-MB-435 38.5 µM | SK-MEL-5 32.9 µM | SK-MEL-28 41.3 µM | SN12C 25.1 µM | MDA-MB-231 30.8 µM | HOP-62 26.2 µM | HT-29 39.2 µM | Malme-3M > 100 µM | UACC-62 19.6 µM | CAKI-1 32.8 µM | BT-549 22.9 µM | KM12 14.2 µM | SW-620 95.9 µM | OVCAR-4 40.4 µM | RPMI-8226 3.68 µM | HCC 2998 23.8 µM | M14 35.9 µM | IGROV-1 12.7 µM | UACC-257 40.5 µM | NCI-H460 13.4 µM | UO-31 10.4 µM | DU-145 34.9 µM | PC-3 19.4 µM | OVCAR-3 27 µM | A549 17.5 µM | A498 28.5 µM
7.46 µM: HCT-15

NC(=S)N/N=C1\CCCCc2ccccc21
inactive: MOLT-4 > 10 µM | EKVX > 10 µM | SF-268 > 10 µM | SNB-19 > 10 µM | T47D 4.81 µM | SR > 10 µM | COLO 205 > 10 µM | TK-10 > 10 µM | CCRF-CEM > 10 µM | HCT-116 > 10 µM | MDA-N > 10 µM | SF-295 > 10 µM | SK-MEL-2 > 10 µM | NCI-H23 > 10 µM | 786-0 > 10 µM | NCI/ADR-RES > 10 µM | NCI-H522 > 10 µM | U-251 > 10 µM | K562 > 10 µM | OVCAR-5 > 10 µM | MDA-MB-435 > 10 µM | SN12C > 10 µM | HOP-62 > 10 µM | HT-29 > 10 µM | Malme-3M > 10 µM | CAKI-1 > 10 µM | BT-549 > 10 µM | KM12 > 10 µM | SW-620 > 10 µM | HL-60 > 10 µM | OVCAR-4 > 10 µM | RPMI-8226 > 10 µM | RXF 393 > 10 µM | HCC 2998 > 10 µM | M14 > 10 µM | UACC-257 > 10 µM | NCI-H226 > 10 µM | NCI-H460 > 10 µM | UO-31 > 10 µM | ACHN > 10 µM | DU-145 > 10 µM | OVCAR-8 > 10 µM | PC-3 > 10 µM | MCF7 > 10 µM | OVCAR-3 > 10 µM | A549 > 10 µM
> 10 µM: HCT-15

CC(C)OC(=O)[C@@H](O)[C@H](CO)C1=CC([Si](C)(C)c2ccccc2)=CON1
> 100 µM: HCT-15
inactive: MOLT-4 > 100 µM | EKVX > 100 µM | SF-268 > 100 µM | SNB-19 > 100 µM | T47D > 100 µM | SR > 100 µM | SNB-75 1.26 µM | COLO 205 > 100 µM | LOX IMVI > 100 µM | TK-10 > 100 µM | HCT-116 > 100 µM | SF-295 > 100 µM | SK-MEL-2 > 100 µM | NCI-H23 > 100 µM | 786-0 > 100 µM | NCI/ADR-RES > 100 µM | U-251 > 100 µM | SK-OV-3 > 100 µM | K562 > 100 µM | OVCAR-5 > 100 µM | MDA-MB-435 > 100 µM | SK-MEL-5 > 100 µM | SK-MEL-28 > 100 µM | MDA-MB-231 > 100 µM | HOP-62 > 100 µM | HT-29 > 100 µM | UACC-62 > 100 µM | CAKI-1 > 100 µM | BT-549 > 100 µM | KM12 > 100 µM | SW-620 > 100 µM | OVCAR-4 > 100 µM | RPMI-8226 > 100 µM | RXF 393 > 100 µM | HCC 2998 > 100 µM | M14 > 100 µM | UACC-257 > 100 µM | NCI-H226 > 100 µM | NCI-H460 > 100 µM | UO-31 > 100 µM | ACHN > 100 µM | DU-145 > 100 µM | SF-539 > 100 µM | OVCAR-8 > 100 µM | PC-3 > 100 µM | MCF7 > 100 µM | OVCAR-3 > 100 µM | A549 > 100 µM | A498 > 100 µM

CCC(=O)OC1=C(c2ccccc2)Sc2ccc(Cl)cc2-n2cccc21
inactive: MOLT-4 7.71 µM | EKVX > 10 µM | SF-268 > 10 µM | T47D > 10 µM | SR 7.52 µM | SNB-75 > 10 µM | COLO 205 > 10 µM | LOX IMVI 8.65 µM | TK-10 > 10 µM | CCRF-CEM 8.89 µM | SF-295 9.62 µM | NCI-H23 8.2 µM | 786-0 > 10 µM | HOP-92 5.78 µM | SK-OV-3 > 10 µM | K562 5.75 µM | MDA-MB-435 2.22 µM | SK-MEL-5 > 10 µM | SK-MEL-28 > 10 µM | SN12C 5.05 µM | MDA-MB-231 4.47 µM | HOP-62 > 10 µM | HT-29 3.78 µM | Malme-3M > 10 µM | UACC-62 8.73 µM | CAKI-1 > 10 µM | KM12 9.04 µM | SW-620 7.67 µM | HL-60 3.95 µM | OVCAR-4 > 10 µM | RPMI-8226 4.45 µM | RXF 393 3.24 µM | HCC 2998 > 10 µM | M14 > 10 µM | IGROV-1 > 10 µM | UACC-257 > 10 µM | DU-145 > 10 µM | OVCAR-8 > 10 µM | PC-3 > 10 µM | MCF7 7.21 µM | A549 > 10 µM
4.69 µM: HCT-15

O=C(c1ccc(Cl)cc1Cl)N1CCN(C(=O)c2ccc(Cl)cc2Cl)C1=S
inactive: RPMI-8226 12.9 µM

COc1c2cc(C(C)(C)C)cc1Cc1cccc(c1O)Cc1cc(C(C)(C)C)cc(c1OC)Cc1cccc(c1O)Cc1cc(C(C)(C)C)cc(c1OC)Cc1cccc(c1O)C2
inactive: MOLT-4 > 100 µM | EKVX > 100 µM | SF-268 > 100 µM | SNB-19 > 100 µM | T47D > 100 µM | SR > 100 µM | SNB-75 > 100 µM | COLO 205 > 100 µM | CCRF-CEM > 10 µM | HCT-116 > 100 µM | MDA-N > 100 µM | SF-295 > 100 µM | SK-MEL-2 > 100 µM | NCI-H23 > 10 µM | 786-0 > 100 µM | NCI/ADR-RES > 100 µM | NCI-H522 > 100 µM | U-251 > 100 µM | HOP-92 > 100 µM | K562 > 100 µM | OVCAR-5 > 100 µM | MDA-MB-435 > 100 µM | SK-MEL-5 > 100 µM | SK-MEL-28 > 100 µM | SN12C > 100 µM | MDA-MB-231 > 100 µM | HOP-62 > 100 µM | HT-29 > 100 µM | Malme-3M > 100 µM | UACC-62 > 100 µM | CAKI-1 > 100 µM | KM12 > 100 µM | SW-620 > 100 µM | HL-60 > 100 µM | RPMI-8226 > 100 µM | RXF 393 > 100 µM | HCC 2998 > 100 µM | M14 55.6 µM | UACC-257 96.6 µM | NCI-H460 > 100 µM | UO-31 > 100 µM | ACHN > 100 µM | DU-145 > 100 µM | SF-539 > 100 µM | OVCAR-8 > 100 µM | PC-3 > 100 µM | MCF7 > 100 µM | OVCAR-3 > 100 µM | A549 > 100 µM | A498 > 100 µM
> 100 µM: HCT-15

From ChEMBL document CHEMBL1201862, “PubChem BioAssay data set” (2004)
